Assay results published in ChEMBL document CHEMBL4270505, “Towards antibody-drug conjugates and prodrug strategies with extracellular stimuli-responsive drug delivery in the tumor microenvironment for cancer therapy” (Eur J Med Chem, 2017).

Key:
[1] = Antitumor activity against human CL1-5 cells xenografted in mouse assessed as disease cure rate; type: functional
HT-29 [2] = assay: Potency index, ratio of IC50 for paclitaxel to IC50 for test compound for cytotoxicity in human HT-29 cells; type: functional
HT-29 [3] = assay: Cytotoxicity in human HT-29 cells assessed as reduction in cell viability; type: functional, cell-based

| SMILES | Activity [1] | Ratio IC50 (HT-29 [2]) | IC50 (HT-29 [3]) [nM] |
| --- | --- | --- | --- |
| Nc1cccc2nc3c(cc12)Cn1c-3cc2c(c1=O)COC(=O)[C@]2(O)CC(=O)OCc1ccc(O[C@@H]2O[C@H](C(=O)O)[C@@H](O)[C@H](O)[C@H]2O)c([N+](=O)[O-])c1 | 70 - 85% |  |  |
| CC(=O)O[C@H]1C(=O)[C@@]2(C)[C@H]([C@H](OC(=O)c3ccccc3)[C@]3(O)C[C@H](OC(=O)[C@H](OC(=O)OCCN(C)C(=O)OCc4ccc(O[C@@H]5O[C@H](C(=O)O)[C@@H](O)[C@H](O)[C@H]5O)cc4)[C@@H](NC(=O)c4ccccc4)c4ccccc4)C(C)=C1C3(C)C)[C@]1(OC(C)=O)CO[C@@H]1C[C@@H]2O |  | 164 | 26 |
